Source: ChEMBL document CHEMBL2413038, “Synthesis and bioevaluation of novel 4-aminoquinoline-tetrazole derivatives as potent antimalarial agents” (Eur J Med Chem, 2013)
In brackets after ≈: the same amount, converted by molar mass. Activity calls are given as the source filed them. No cut-off for these calls is given here.

System: Plasmodium falciparum
Experiment: Antimalarial activity against chloroquine-resistant Plasmodium falciparum K1 after 72 hrs by MSF assay
Type: functional, organism-based
Settings: K1, 72 h

SMILES | IC50 [nM]
CC(C)(C)n1nnnc1C(NCCNc1ccnc2cc(Cl)ccc12)c1ccc(Cl)cc1 (stereo not drawn) | 278
Cc1ccc(C(Nc2ccc(Nc3ccnc4cc(Cl)ccc34)cc2)c2nnnn2C(C)(C)C)cc1 (stereo not drawn) | 75.4
CCc1ccc(C(Nc2ccc(Nc3ccnc4cc(Cl)ccc34)cc2)c2nnnn2C(C)(C)C)cc1 (stereo not drawn) | 688
CC(C)(C)n1nnnc1C(NCCCNc1ccnc2cc(Cl)ccc12)c1ccc(Cl)cc1 (stereo not drawn) | 754
Clc1ccc(C(Nc2ccc(Nc3ccnc4cc(Cl)ccc34)cc2)c2nnnn2C2CCCCC2)cc1 (stereo not drawn) | 139

System: Plasmodium yoelii
Experiment: Antimalarial activity against chloroquine-resistant Plasmodium yoelii N-67 infected in Swiss mouse assessed as mouse survival at 50 mg/kg, ip qd for 4 days measured on day 28 post infection relative to control
Type: functional
Settings: not given

SMILES | Activity
Cc1ccc(C(Nc2ccc(Nc3ccnc4cc(Cl)ccc34)cc2)c2nnnn2C(C)(C)C)cc1 (stereo not drawn) | inactive
Clc1ccc(C(Nc2ccc(Nc3ccnc4cc(Cl)ccc34)cc2)c2nnnn2C2CCCCC2)cc1 (stereo not drawn) | inactive

System: Plasmodium yoelii
Experiment: Antimalarial activity against chloroquine-resistant Plasmodium yoelii N-67 infected in Swiss mouse assessed as mean survival time at 50 mg/kg, ip qd for 4 days
Type: functional
Settings: route intraperitoneal

SMILES | MST [days]
Cc1ccc(C(Nc2ccc(Nc3ccnc4cc(Cl)ccc34)cc2)c2nnnn2C(C)(C)C)cc1 (stereo not drawn) | 11
Clc1ccc(C(Nc2ccc(Nc3ccnc4cc(Cl)ccc34)cc2)c2nnnn2C2CCCCC2)cc1 (stereo not drawn) | 10.4

System: Plasma
Experiment: Inhibition of beta-hematin formation in Plasmodium yoelii-infected Swiss albino mouse plasma using hemin as substrate after 16 hrs
Type: functional, cell-free
Settings: not given

SMILES | IC50 [µg/mL] | inhibition
CC(C)(C)n1nnnc1C(NCCNc1ccnc2cc(Cl)ccc12)c1ccc(Cl)cc1 (stereo not drawn) | 6.15 (≈ 13.1 µM) | Dose-dependent effect
Cc1ccc(C(Nc2ccc(Nc3ccnc4cc(Cl)ccc34)cc2)c2nnnn2C(C)(C)C)cc1 (stereo not drawn) | 5.39 (≈ 10.8 µM) | Dose-dependent effect
CCc1ccc(C(Nc2ccc(Nc3ccnc4cc(Cl)ccc34)cc2)c2nnnn2C(C)(C)C)cc1 (stereo not drawn) | 5.95 (≈ 11.6 µM) | Dose-dependent effect
CC(C)(C)n1nnnc1C(NCCCNc1ccnc2cc(Cl)ccc12)c1ccc(Cl)cc1 (stereo not drawn) | 5.95 (≈ 12.3 µM) | Dose-dependent effect
Clc1ccc(C(Nc2ccc(Nc3ccnc4cc(Cl)ccc34)cc2)c2nnnn2C2CCCCC2)cc1 (stereo not drawn) | 3.81 (≈ 7 µM) | Dose-dependent effect

System: Plasmodium falciparum
Experiment: Antimalarial activity against chloroquine-sensitive Plasmodium falciparum 3D7 after 72 hrs by MSF assay
Type: functional, organism-based
Settings: 3D7, 72 h

SMILES | IC50 [nM]
CC(C)(C)n1nnnc1C(NCCNc1ccnc2cc(Cl)ccc12)c1ccc(Cl)cc1 (stereo not drawn) | 23.9
Cc1ccc(C(Nc2ccc(Nc3ccnc4cc(Cl)ccc34)cc2)c2nnnn2C(C)(C)C)cc1 (stereo not drawn) | 1010
CCc1ccc(C(Nc2ccc(Nc3ccnc4cc(Cl)ccc34)cc2)c2nnnn2C(C)(C)C)cc1 (stereo not drawn) | 51.4
CC(C)(C)n1nnnc1C(NCCCNc1ccnc2cc(Cl)ccc12)c1ccc(Cl)cc1 (stereo not drawn) | 81.4
Clc1ccc(C(Nc2ccc(Nc3ccnc4cc(Cl)ccc34)cc2)c2nnnn2C2CCCCC2)cc1 (stereo not drawn) | 156

System: Plasmodium yoelii
Experiment: Antimalarial activity against chloroquine-resistant Plasmodium yoelii N-67 infected in Swiss mouse assessed as cured animal at 50 mg/kg, ip qd for 4 days measured on day 28 post infection relative to control
Type: functional
Settings: not given

SMILES | Activity
Cc1ccc(C(Nc2ccc(Nc3ccnc4cc(Cl)ccc34)cc2)c2nnnn2C(C)(C)C)cc1 (stereo not drawn) | inactive
Clc1ccc(C(Nc2ccc(Nc3ccnc4cc(Cl)ccc34)cc2)c2nnnn2C2CCCCC2)cc1 (stereo not drawn) | inactive

System: Plasmodium yoelii
Experiment: Antimalarial activity against chloroquine-resistant Plasmodium yoelii N-67 infected in Swiss mouse assessed as suppression of parasitaemia level at 50 mg/kg, ip qd for 4 days relative to control
Type: functional
Settings: route intraperitoneal

SMILES | Activity [%]
Cc1ccc(C(Nc2ccc(Nc3ccnc4cc(Cl)ccc34)cc2)c2nnnn2C(C)(C)C)cc1 (stereo not drawn) | 21.3
Clc1ccc(C(Nc2ccc(Nc3ccnc4cc(Cl)ccc34)cc2)c2nnnn2C2CCCCC2)cc1 (stereo not drawn) | 20.43

System: not listed separately
Experiment: Selectivity index, ratio of CC50 for African green monkey Vero cells to IC50 for Plasmodium falciparum
Type: functional
Settings: not given

SMILES | Ratio CC50/IC50
CC(C)(C)n1nnnc1C(NCCNc1ccnc2cc(Cl)ccc12)c1ccc(Cl)cc1 (stereo not drawn) | 839.68
CCc1ccc(C(Nc2ccc(Nc3ccnc4cc(Cl)ccc34)cc2)c2nnnn2C(C)(C)C)cc1 (stereo not drawn) | 3652.19
CC(C)(C)n1nnnc1C(NCCCNc1ccnc2cc(Cl)ccc12)c1ccc(Cl)cc1 (stereo not drawn) | 248.65
Clc1ccc(C(Nc2ccc(Nc3ccnc4cc(Cl)ccc34)cc2)c2nnnn2C2CCCCC2)cc1 (stereo not drawn) | 694.18

System: Plasmodium falciparum
Experiment: Resistance index, ratio of IC50 for chloroquine-resistant Plasmodium falciparum K1 to IC50 for chloroquine-sensitive Plasmodium falciparum 3D7
Type: functional
Settings: not given

SMILES | Ratio IC50
CC(C)(C)n1nnnc1C(NCCNc1ccnc2cc(Cl)ccc12)c1ccc(Cl)cc1 (stereo not drawn) | 11.6
Cc1ccc(C(Nc2ccc(Nc3ccnc4cc(Cl)ccc34)cc2)c2nnnn2C(C)(C)C)cc1 (stereo not drawn) | 0.07
CCc1ccc(C(Nc2ccc(Nc3ccnc4cc(Cl)ccc34)cc2)c2nnnn2C(C)(C)C)cc1 (stereo not drawn) | 13.4
CC(C)(C)n1nnnc1C(NCCCNc1ccnc2cc(Cl)ccc12)c1ccc(Cl)cc1 (stereo not drawn) | 9.2
Clc1ccc(C(Nc2ccc(Nc3ccnc4cc(Cl)ccc34)cc2)c2nnnn2C2CCCCC2)cc1 (stereo not drawn) | 0.9

System: Plasmodium falciparum
Experiment: Ratio of chloroquine IC50 to compound IC50 for chloroquine-resistant Plasmodium falciparum K1
Type: functional
Settings: not given

SMILES | Ratio IC50
Cc1ccc(C(Nc2ccc(Nc3ccnc4cc(Cl)ccc34)cc2)c2nnnn2C(C)(C)C)cc1 (stereo not drawn) | 3.38
